Experimental data as given in patent US5460697A, “Method of pulping wood chips with a fungi using sulfite salt-treated wood chips” (priority 1994, dated 1995).
Entries after “also recorded” stand apart in the source; their conditions may differ.

Legend:
[1] = Effluent toxicity (Microtox); settings: for Toxicity Units (100/EC50): 1300 μg/ml BiS
From the text: Evaluating biopulp effluents is an important factor in assessing the feasibility of this new pulping process. […] Because the composition of biopulp effluent is unknown, we selected a general toxicity test method, Microtox, as an appropriate method for the evaluation. Microtox analysis has been used satisfactorily as a rapid screening method for evaluating toxicity of pulp mill effluents Firth, B. and Backman, C. Tappi J., 75[12]169; 1991.
For each run, approximately 1.5-1.6 kg wood chips (oven dry weight basis) of each treatment from 4-week incubation samples, were fiberized in an atmospheric refiner and the pulp slurry was collected in 20-gallon plastic containers. The flow rate during refining operation was approximately 50 kg 90° C. water per kg chips (oven dry weight basis). A representative 5-gallon sample was taken from each slurry and filtered on a Buchner funnel to separate pulp from effluent (filtrate). Filtrates were cooled to 4° C. and pH was recorded. Chilled effluent samples were submitted for Microtox testing at National Council for Air and Stream Improvement according to standard Microtox procedures.

C. subvennispora CZ-3 = experiment: Effect of sodium bisulfite on radial growth of white-rot fungi; type: cell-based, C. subvermispora; settings: 500 μg/ml
Method: (§1) 2% agar was added to the medium. The medium was autoclaved for 15 min. and the medium was poured into petri dishes. These plates were then inoculated with a plug cut into 8-mm diameter plugs from a petri dish containing a 5-day-old culture of P. chrysosporium or a petri dish containing a 10-day-old culture of another white-rot fungi. P. chrysosporium-inoculated plates were incubated at 39° C. Plates inoculated with other fungi were incubated at 27° C.

[2] = system: C. subvennispora FP-105752-sp; experiment: as above; type: cell-based, C. subvermispora; settings: 500 μg/ml
Method: as §1

[3] = system: C. subvennispora L-15225-sp; experiment: as above; type: cell-based, C. subvermispora; settings: 500 μg/ml
Method: as §1

[4] = system: C. subvennispora L-14807-sp; experiment: as above; type: cell-based, C. subvermispora; settings: 500 μg/ml
Method: as §1

[5] = system: C. subvennispora FP-104027-T; experiment: as above; type: cell-based, C. subvermispora; settings: 500 μg/ml
Method: as §1

[6] = system: C. subvennispora FP-90031-sp; experiment: as above; type: cell-based, C. subvermispora; settings: 500 μg/ml
Method: as §1

[7] = system: C. subvennispora L-6133-sp; experiment: as above; type: cell-based, C. subvermispora; settings: 500 μg/ml
Method: as §1

P. tremellosa PRL-2845 = experiment: as above; type: cell-based; settings: 500 μg/ml
Method: as §1

[8] = system: P. subserialis RLG-6074-sp; experiment: as above; type: cell-based; settings: 500 μg/ml
Method: as §1

P. brevispora 7030-sp = experiment: as above; type: cell-based; settings: 500 μg/ml
Method: as §1

H. setulosa FP-106976-sp = experiment: as above; type: cell-based; settings: 500 μg/ml
Method: as §1

[9] = system: indigenous microorganisms; experiment: Contaminants level of sodium bisulfite-soaked aspen chips (plating before inoculation and at harvest); type: cell-based, endogenous microorganisms of aspen wood chips; settings: for contaminants level at harvest (in words): fungus-treated chips with sodium bisulfite
Method: Three batches of aspen wood chips were prepared, each batch containing 1800 g dry weight of chips. One batch was soaked in 18 kg of water containing no sodium bisulfite. A second batch was soaked in 18 kg of water containing 28.125 g of sodium bisulfite. A third batch was soaked in 18 kg of water containing 56.250 g of sodium bisulfite. After the chips had soaked, we performed our experiments on 1600 g of chips (dry weight basis). The soaking was done at room temperature for about 1 hour. After soaking, water or sodium bisulfite solution was drained through a mesh. Based on the amount of water or sodium bisulfite solution absorbed by the chips, we calculated that 1600 g dry weight of chips retained about 600 or 1200 μg/ml of sodium bisulfite. Thus, there were three treatments: 1) chips without sodium bisulfite (water only), 2) chips containing 600 μg/ml of sodium bisulfite, and 3) chips containing 1200 μg/ml of sodium bisulfite.
Bioreactors containing soaked chips were left at room temperature for 48 h. U.S. Pat. No. 5,055,159 describes a suitable bioreactor. (U.S. Pat. No. 5,055,159 is hereby incorporated by reference.) Prior to inoculation, chips were pulled out from these bioreactors and plated on potato dextrose and tryptic soya agar plates to measure the contaminants level. These plates were incubated at 27° C. and 65% relative humidity for 24 h.
At harvest, fungus-treated chips with and without sodium bisulfite soaking were plated on potato dextrose and tryptic soya agar plates to determine the contaminants level. These plates were incubated at 27° C. and 65% relative humidity for 72 h. […] High level of sodium bisulfite (1200 μg/ml) caused only 1.7% wood loss, saved 18.4% of electrical energy, improved tear index by 15%, and fiber length by 26% as compared to the control.
We repeated the experiment described above with a four-week incubation. Four batches of aspen wood chips were prepared, each batch containing 3600 g dry weight of chips. One batch was soaked in 36 kg of water containing no sodium bisulfite. Second, third and fourth batches each were soaked in 36 kg of water containing 112.50 g of sodium bisulfite at room temperature for about 1 hour. After soaking, water or sodium bisulfite solution was drained through a mesh. Based on the amount of water or sodium bisulfite solution soaked, we calculated that each batch of 1600 g dry weight of chips retained about 1300 μg/ml of sodium bisulfite. Bioreactors containing soaked chips were left at room temperature for 48 h. The following eight treatments were made:
Prior to inoculation, chips were pulled out from the bioreactors and plated on potato dextrose and tryptic soya agar plates to determine the contaminants level. These plates were incubated at 27° C. and 65% relative humidity for 24 h. […]

SMILES: O=S([O-])O.[Na+] [Sodium Bisulfite]
- Toxicity Units (100/EC50) ([1]; Control 2: not A/C, no fungus): 15.4 Toxicity Units
- Toxicity Units (100/EC50) ([1]; Control 4: A/C, no fungus): 16.1 Toxicity Units
- Toxicity Units (100/EC50) ([1]; Treatment 2: not A/C, with fungus, 4-week incubation): 4.2 Toxicity Units
- Toxicity Units (100/EC50) ([1]; Treatment 4: A/C, with fungus, 4-week incubation): 6.2 Toxicity Units
- toxicity (in words) ([1]; at least 2-2.5 kg/ton of wood chips, unsterilized, vs control chips): less toxicity than from control chips
- effluent toxicity (in words) ([1]; biopulp, treatment 2): least toxic effluent from biopulp
- effluent toxicity (in words) ([1]; controls without fungus (control 2, control 4)): high effluent toxicity; also recorded: increased effluent toxicity of the non-autoclaved control chips
- Radial growth 72h ± SD (C. subvennispora CZ-3; 72 h): 2.37 ± .12 cm
- Radial growth 96h ± SD (C. subvennispora CZ-3; 96 h): 4.37 ± .15 cm
- Radial growth 72h ± SD ([2]; 72 h): 2.13 ± .06 cm
- Radial growth 96h ± SD ([2]; 96 h): 4.00 ± 00 cm
- Radial growth 72h ± SD ([3]; 72 h): 1.63 ± .40 cm
- Radial growth 96h ± SD ([3]; 96 h): 4.20 ± .72 cm
- Radial growth 72h ± SD ([4]; 72 h): 2.60 ± .30 cm
- Radial growth 96h ± SD ([4]; 96 h): 5.07 ± .31 cm
- Radial growth 72h ± SD ([5]; 72 h): 3.63 ± .23 cm
- Radial growth 96h ± SD ([5]; 96 h): 6.07 ± .46 cm
- Radial growth 72h ± SD ([6]; 72 h): 3.20 ± .20 cm
- Radial growth 96h ± SD ([6]; 96 h): 5.77 ± .31 cm
- Radial growth 72h ± SD ([7]; 72 h): 2.37 ± .25 cm
- Radial growth 96h ± SD ([7]; 96 h): 4.80 ± .20 cm
- Radial growth 72h ± SD (P. tremellosa PRL-2845; 72 h): 1.73 ± .06 cm
- Radial growth 96h ± SD (P. tremellosa PRL-2845; 96 h): 2.97 ± .12 cm
- Radial growth 72h ± SD ([8]; 72 h): 3.93 ± .42 cm
- Radial growth 96h ± SD ([8]; 96 h): 7.07 ± .29 cm
- Radial growth 72h ± SD (P. brevispora 7030-sp; 72 h): 2.23 ± .06 cm
- Radial growth 96h ± SD (P. brevispora 7030-sp; 96 h): 4.07 ± .38 cm
- Radial growth 72h ± SD (H. setulosa FP-106976-sp; 72 h): 1.97 ± .06 cm
- Radial growth 96h ± SD (H. setulosa FP-106976-sp; 96 h): 3.77 ± .25 cm
- endogenous microorganisms on chips (in words) ([9]; 1200 μg/ml, prior to inoculation, 48 h after soaking, 2-week experiment): no endogenous microorganisms
- inhibition of microorganisms prior to inoculation (in words) ([9]; 1300 μg/ml, 4-week experiment): completely inhibited microorganisms
- contaminants level at harvest (in words) ([9]; 2 weeks): almost no contamination
- contaminants level at harvest (in words) ([9]; 4 weeks): almost no contamination
